Among the data in PubChem BioAssay (NCI) are TGI and GI50 values, retold here.

Where “and” joins values, the source holds several entries; their conditions need not be identical. Equal values may be shown once.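 Step 1: Grow cells in 96-well plates. Step 2: Expose to compound for 48 hours at 5 concentrations. Step 3: Interpolate endpoints linearly; if unreached, use highest concentration. GI50 is the concentration that inhibits growth by half. The concentration for full growth arrest is given as TGI.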

The first assay deals with RXF-631 renal. Kind of assay: NCI tumour cell line growth inhibition, 48 h.
The compound `CC(C)C(=O)Nc1nc2c(ncn2C2OC(CO)C(O)C2O)c(=O)[nH]1` (configuration not stated) yielded a TGI of more than 100 µM.

`O=S(=O)(c1ccccc1)C1CN2OC1(S(=O)(=O)c1ccccc1)CC2c1ccc(Br)cc1` (configuration not stated) came in with a TGI of more than 100 µM.

The compound `CC(=O)O[C@H]1CCC2[C@@H]3CCC4Nc5[nH]ncc5C[C@]4(C)C3CC[C@@]21C` (some centres not stated) displayed a TGI of more than 100 µM.

For `Cc1cc(C)nc(NS(=O)(=O)c2ccc(NC(=O)c3cccc4c(Nc5ccc(S(N)(=O)=O)cc5)c5ccccc5nc34)cc2)n1`, the TGI was more than 100 µM.

On to `Cc1cc(S(=O)(=O)O)c(NC(=O)C(=O)Cc2cc(=O)oc3cc(O)ccc23)cc1Cl`, for which the TGI is more than 100 µM.

A further assay has as its system SN12K1 renal. Nature of the assay: NCI tumour cell line growth inhibition, 48 h.
In turn, `CC[C@H]1CN2CCc3cc(OC)c(OC)cc3[C@@H]2C[C@@H]1C[C@H]1NCCc2c1[nH]c1ccc(O)cc21` had a TGI of 2.64 µM.

Regarding `O=C(O)CC(NC(=O)CP(=O)(O)O)C(=O)O` (configuration not stated), the TGI is more than 10000 µM.

The test system of a further assay is SNB-78 CNS. Kind of assay: NCI tumour cell line growth inhibition, 48 h.
With `CC(C)C(=O)NS(=O)(=O)c1ccccc1`, the TGI is more than 100 µM.

For `COC1(OC)CC2C(=O)N(Cc3ccccc3)C1C=C2S(=O)(=O)c1ccccc1` (configuration not stated), the TGI was 74.4 µM.

As for `CC(=O)[O][Ga]([Br])[O]C(C)=O`, the GI50 is more than 100 µM and the TGI was more than 100 µM.

Regarding `COc1cc2c(OC)cc1CSCc1sc(C)c(c1Br)CSC2`, the TGI is more than 100 µM.

Take `Cc1cccc(C)c1NC(=O)C(=O)C(C(=O)c1ccccc1-c1ccccc1)C1OC(=O)c2ccccc21` (configuration not stated): the TGI was more than 100 µM.

The compound `CC1COC(C)(C)P(=O)(c2ccccc2)C1` (configuration not stated) yielded a TGI of more than 100 µM.

Turning to `Cc1ccc(S(=O)(=O)c2ccc(N)cc2)cc1`, the TGI is more than 100 µM.

In turn, `CCOP(=O)(OCC)OC1C=CC2CCC1C2` (configuration not stated) displayed a TGI of more than 100 µM.

Turning to `COC(=O)[C@H]1C=C[C@@H](C)n2c(=O)c3cc4ccccc4cc3c(=O)n21`, the TGI was more than 100 µM.

`COc1cc(C=O)c(-c2cc(OC)c(OC)cc2C=O)cc1OC` gave a TGI of more than 100 µM.

With `N#CC(C(=O)C(=O)Nc1ccc(Cl)cc1)c1ccccc1` (configuration not stated), the TGI is more than 100 µM.

With `COC(=O)/C=C1\CCC(C)O1` (configuration not stated), the TGI is more than 100 µM.

As to `O=C(/C=C/c1ccccc1Cl)NC1C=Nc2ccc([N+](=O)[O-])cc2NC1` (configuration not stated), the TGI is more than 100 µM.

As for `CC[C@H]1CN2CCc3cc(OC)c(OC)cc3[C@@H]2C[C@@H]1C[C@H]1NCCc2c1[nH]c1ccc(O)cc21`, the GI50 is 0.0273 µM and 0.0257 µM; the TGI was 0.0828 µM and 0.0713 µM and 0.11 µM.

Compound `CCCO/S(=N\S(=O)(=O)c1ccccc1)c1ccccc1[N+](=O)[O-]` (configuration not stated) returned a TGI of more than 100 µM.

In turn, `C/C(CC(=O)Nc1cccc(Cl)c1C)=N\NC(=O)c1ccncc1` displayed a TGI of more than 100 µM.

`O=C(O)CC(NC(=O)CP(=O)(O)O)C(=O)O` (configuration not stated) gave a TGI of more than 10000 µM.

Turning to `COC(=O)/C=C/c1c(CC=C(C)C)ncn1C`, the TGI is more than 100 µM.

As for `CC(C)C(=O)Nc1nc2c(ncn2C2OC(CO)C(O)C2O)c(=O)[nH]1` (configuration not stated), the TGI was more than 100 µM.

On to `O=Cc1ccc2c(c1-c1c(C=O)ccc3c1OCO3)OCO2`, for which the TGI is more than 100 µM.

As for `Cc1cc(C)nc(NS(=O)(=O)c2ccc(NC(=O)c3cccc4c(Nc5ccc(S(N)(=O)=O)cc5)c5ccccc5nc34)cc2)n1`, the TGI is 52.3 µM.

The test system of the next assay is XF 498 CNS. Nature of the assay: NCI tumour cell line growth inhibition, 48 h.
The compound `CC(C)C(=O)NS(=O)(=O)c1ccccc1` displayed a TGI of more than 100 µM.

`COC1(OC)CC2C(=O)N(Cc3ccccc3)C1C=C2S(=O)(=O)c1ccccc1` (configuration not stated) returned a TGI of 31.7 µM.

With `CC(=O)[O][Ga]([Br])[O]C(C)=O`, the GI50 is more than 100 µM and the TGI is more than 100 µM.

Consider `COc1cc2c(OC)cc1CSCc1sc(C)c(c1Br)CSC2`, for which the TGI is more than 100 µM.

`CC(C)N(C(=O)C12C3C4C1(I)C1C2C3(I)C41C(=O)N(C(C)C)C(C)C)C(C)C` (configuration not stated) returned a TGI of more than 100 µM.

`Cc1cccc(C)c1NC(=O)C(=O)C(C(=O)c1ccccc1-c1ccccc1)C1OC(=O)c2ccccc21` (configuration not stated) registered a TGI of 30.9 µM.

Consider `CC1COC(C)(C)P(=O)(c2ccccc2)C1` (configuration not stated), for which the TGI is more than 100 µM.

`Cc1ccc(S(=O)(=O)c2ccc(N)cc2)cc1`: the TGI was more than 100 µM.

Consider `CCOP(=O)(OCC)OC1C=CC2CCC1C2` (configuration not stated), for which the TGI was more than 100 µM.

The compound `COC(=O)[C@H]1C=C[C@@H](C)n2c(=O)c3cc4ccccc4cc3c(=O)n21` yielded a TGI of more than 100 µM.

With `COc1c[c]([Hg][O]C(C)=O)c(OC)c(NC(=O)CC(C)=O)[c]1[Hg][O]C(C)=O`, the GI50 is 1.65 µM and the TGI came to 3.2 µM.

In turn, `COC(=O)/C=C1\CCC(C)O1` (configuration not stated) came in with a TGI of more than 100 µM.

As for `O=C(/C=C/c1ccccc1Cl)NC1C=Nc2ccc([N+](=O)[O-])cc2NC1` (configuration not stated), the TGI was more than 100 µM.

As for `CC[C@H]1CN2CCc3cc(OC)c(OC)cc3[C@@H]2C[C@@H]1C[C@H]1NCCc2c1[nH]c1ccc(O)cc21`, the GI50 was 0.0415 µM; the TGI is 0.0586 µM and 0.268 µM.

`CCCO/S(=N\S(=O)(=O)c1ccccc1)c1ccccc1[N+](=O)[O-]` (configuration not stated) displayed a TGI of more than 100 µM.

`Cc1ccc(C)c(N=C2NC(=O)C(CC(=O)Nc3ccc(Cl)cc3Cl)S2)c1` (configuration not stated): the TGI came to 90.5 µM.

`C/C(CC(=O)Nc1cccc(Cl)c1C)=N\NC(=O)c1ccncc1` came in with a TGI of more than 100 µM.

For the compound `Cc1cc(NS(=O)(=O)c2ccc(Nc3c4ccccc4nc4c(C(=O)N5CCN(CCO)CC5)ccc(Cl)c34)cc2)no1`, the TGI is more than 100 µM.

The compound `O=C(O)CC(NC(=O)CP(=O)(O)O)C(=O)O` (configuration not stated) showed a TGI of more than 3160 µM.

Consider `COC(=O)/C=C/c1c(CC=C(C)C)ncn1C`, for which the TGI was more than 100 µM.

Turning to `CC(C)C(=O)Nc1nc2c(ncn2C2OC(CO)C(O)C2O)c(=O)[nH]1` (configuration not stated), the TGI was more than 100 µM.

As to `O=S(=O)(c1ccccc1)C1CN2OC1(S(=O)(=O)c1ccccc1)CC2c1ccc(Br)cc1` (configuration not stated), the TGI is 57.5 µM.

`CC(=O)O[C@H]1CCC2[C@@H]3CCC4Nc5[nH]ncc5C[C@]4(C)C3CC[C@@]21C` (some centres not stated) yielded a TGI of 87 µM.

On to `Cc1cc(C)nc(NS(=O)(=O)c2ccc(NC(=O)c3cccc4c(Nc5ccc(S(N)(=O)=O)cc5)c5ccccc5nc34)cc2)n1`, for which the TGI stood at 88.2 µM.
